{"source": "patent US20240158446A1", "about": "“CYCLIC COMPOUND HAVING SELECTIVE INHIBITORY ACTION ON KRAS OVER HRAS AND NRAS” (CHUGAI SEIYAKU KABUSHIKI KAISHA, priority 2021, published 2024)", "key": {"[1]": {"biological_target": "GDP-bound NRAS wild-type protein (Homo sapiens, UniProt P01111)", "sequence (P01111 whole entry)": "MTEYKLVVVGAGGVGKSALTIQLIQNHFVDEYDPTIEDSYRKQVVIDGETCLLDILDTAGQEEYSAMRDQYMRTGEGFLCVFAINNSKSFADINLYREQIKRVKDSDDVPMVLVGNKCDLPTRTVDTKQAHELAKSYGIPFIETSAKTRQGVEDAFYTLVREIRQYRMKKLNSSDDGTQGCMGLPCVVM", "assay": "Binding to NRAS by surface plasmon resonance (SPR), Single Cycle Kinetics", "details": "SPR KD ratio NRAS/KRAS, class symbols"}, "[2]": {"biological_target": "GDP-bound HRAS wild-type protein (Homo sapiens, UniProt P01112)", "sequence (P01112 whole entry)": "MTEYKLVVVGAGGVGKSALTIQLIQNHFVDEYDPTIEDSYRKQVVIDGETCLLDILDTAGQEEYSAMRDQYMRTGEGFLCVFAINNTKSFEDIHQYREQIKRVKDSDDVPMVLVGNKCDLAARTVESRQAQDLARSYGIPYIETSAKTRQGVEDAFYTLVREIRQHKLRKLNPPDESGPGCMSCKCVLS", "assay": "Binding to HRAS by surface plasmon resonance (SPR), Single Cycle Kinetics", "details": "SPR KD ratio HRAS/KRAS, class symbols"}}}
{"compound": "CCC[C@H]1C(=O)N[C@@H]([C@@H](C)CC)C(=O)N(C)CC(=O)N(C)[C@H]2C/C=C\\CCN(C2=O)[C@@H](Cc2ccc(C)cc2)C(=O)N(C)CC(=O)N[C@@H](CCc2cc(F)c(C(F)(F)F)c(F)c2)C(=O)N2C[C@H](OCC)C[C@H]2C(=O)NC2(CC(C)(C)C2)C(=O)N(C)[C@@H](CC2CC2)C(=O)N(C)[C@H](C(=O)N(C)C)CC(=O)N1C", "note": "[PP2797]", "values": [{"measurement": "NRAS/KRAS (ratio of KD value with respect to GDP-bound NRAS wild-type protein to KD value with respect to KRAS)", "setting": "[1]", "value": "A (a compound having 10 or more and less than 20 is denoted as A)"}, {"measurement": "HRAS/KRAS (ratio of KD value with respect to GDP-bound HRAS wild-type protein to KD value with respect to KRAS)", "setting": "[2]", "value": "A (a compound having 10 or more and less than 20 is denoted as A)"}]}
{"compound": "CCC[C@H]1C(=O)N[C@@H]([C@@H](C)CC)C(=O)N(C)CC(=O)N(C)[C@H]2C/C=C\\CCN(C2=O)[C@@H](Cc2ccc(C)cc2)C(=O)N(C)CC(=O)N[C@@H](CCc2ccc(Cl)c(Cl)c2)C(=O)N2C[C@H](OCC)C[C@H]2C(=O)NC2(CC(C)(C)C2)C(=O)N(C)[C@@H](CC2CC2)C(=O)N(C)[C@H](C(=O)N(C)C)CC(=O)N1C", "note": "[PP2799]", "values": [{"measurement": "NRAS/KRAS (ratio of KD value with respect to GDP-bound NRAS wild-type protein to KD value with respect to KRAS)", "setting": "[1]", "value": "A (a compound having 10 or more and less than 20 is denoted as A)"}, {"measurement": "HRAS/KRAS (ratio of KD value with respect to GDP-bound HRAS wild-type protein to KD value with respect to KRAS)", "setting": "[2]", "value": "A (a compound having 10 or more and less than 20 is denoted as A)"}]}
{"compound": "CC[C@H](C)[C@@H]1NC(=O)[C@H](CC2CC2)N(C)C(=O)C[C@@H](C(=O)N(C)CC)N(C)C(=O)[C@H](C2CCCC2)N(C)C(=O)C2(CC(C)(C)C2)NC(=O)[C@@H]2C[C@@H](F)CN2C(=O)[C@H](CCc2cc(F)c(C(F)(F)F)c(F)c2)NC(=O)CN(C)C(=O)[C@H](Cc2ccc(C)cc2)N2CC/C=C\\C[C@@H](C2=O)N(C)C(=O)CN(C)C1=O", "note": "[PP2802]", "values": [{"measurement": "NRAS/KRAS (ratio of KD value with respect to GDP-bound NRAS wild-type protein to KD value with respect to KRAS)", "setting": "[1]", "value": "AA (a compound having 20 or more is denoted as AA)"}, {"measurement": "HRAS/KRAS (ratio of KD value with respect to GDP-bound HRAS wild-type protein to KD value with respect to KRAS)", "setting": "[2]", "value": "A (a compound having 10 or more and less than 20 is denoted as A)"}]}
{"compound": "CCC[C@H]1C(=O)N[C@@H]([C@@H](C)CC)C(=O)N(C2CC2)CC(=O)N(C)[C@H]2C/C=C\\CCN(C2=O)[C@@H](Cc2ccc(C)cc2)C(=O)N(C)CC(=O)N[C@@H](CCc2ccc(Cl)c(Cl)c2)C(=O)N2C[C@H](OCC)C[C@H]2C(=O)NC2(CC(C)(C)C2)C(=O)N(C)[C@@H](CC2CC2)C(=O)N(C)[C@H](C(=O)N(C)C)CC(=O)N1C", "note": "[PP2805]", "values": [{"measurement": "NRAS/KRAS (ratio of KD value with respect to GDP-bound NRAS wild-type protein to KD value with respect to KRAS)", "setting": "[1]", "value": "A (a compound having 10 or more and less than 20 is denoted as A)"}, {"measurement": "HRAS/KRAS (ratio of KD value with respect to GDP-bound HRAS wild-type protein to KD value with respect to KRAS)", "setting": "[2]", "value": "A (a compound having 10 or more and less than 20 is denoted as A)"}]}
{"compound": "CCO[C@@H]1C[C@H]2C(=O)N(C)C3(CC(C)(C)C3)C(=O)N(C)[C@@H](C(CC)CC)C(=O)N(C)[C@H](C(=O)N(C)C)CC(=O)N(C)[C@@H](COC)C(=O)N[C@@H]([C@@H](C)CC)C(=O)N(C)CC(=O)N(C)[C@H]3C/C=C\\CCN(C3=O)[C@@H](Cc3ccc(C)cc3)C(=O)N(C)CC(=O)N[C@@H](CCc3ccc(Cl)c(Cl)c3)C(=O)N2C1", "note": "[PP2810]", "values": [{"measurement": "NRAS/KRAS (ratio of KD value with respect to GDP-bound NRAS wild-type protein to KD value with respect to KRAS)", "setting": "[1]", "value": "AA (a compound having 20 or more is denoted as AA)"}, {"measurement": "HRAS/KRAS (ratio of KD value with respect to GDP-bound HRAS wild-type protein to KD value with respect to KRAS)", "setting": "[2]", "value": "A (a compound having 10 or more and less than 20 is denoted as A)"}]}
{"compound": "CCCO[C@@H]1C[C@H]2C(=O)N(C)C3(CC(C)(C)C3)C(=O)N(C)[C@@H](C(CC)CC)C(=O)N(C)[C@H](C(=O)N(C)C)CC(=O)N(C)[C@@H](COC)C(=O)N[C@@H]([C@@H](C)CC)C(=O)N(C)CC(=O)N(C)[C@H]3C/C=C\\CCN(C3=O)[C@@H](Cc3ccc(C)cc3)C(=O)N(C)CC(=O)N[C@@H](CCc3ccc(Cl)c(Cl)c3)C(=O)N2C1", "note": "[PP2812]", "values": [{"measurement": "NRAS/KRAS (ratio of KD value with respect to GDP-bound NRAS wild-type protein to KD value with respect to KRAS)", "setting": "[1]", "value": "AA (a compound having 20 or more is denoted as AA)"}, {"measurement": "HRAS/KRAS (ratio of KD value with respect to GDP-bound HRAS wild-type protein to KD value with respect to KRAS)", "setting": "[2]", "value": "A (a compound having 10 or more and less than 20 is denoted as A)"}]}
